Assay results: patent US20040102524A1, “Method of treatment” (priority 2001, published 2004)

Test system: uric acid levels
Experiment: Clinical data for reduction of uric acid levels in human volunteers
Assay type: in vivo
Set-up: Mean uric acid 24 hr. after dose: unit not given here
Settings: for mean uric acid blood level reduced by: 24 hours after administration vs baseline; for % at 24 hrs. (mean blood level of uric acid at 24 hours after administration as a percentage of the baseline level) / Mean uric acid 24 hr. after dose: oral tablets; for Mean uric acid 24 hr. after dose: plasma
Experimental: Test subjects were orally administered tablets containing N-propanesulfonyl-6-[N-(5-bromo-2-(cyclopropylmethoxy)benzyl)-N-ethylamino]pyridazine-3-carboxamide, or a matching placebo was administered orally as tablets, with 200 mL of distilled water. The subjects were directed to remain semi-recumbent for six hours after dosing. A 4.9 mL sample of blood was taken into a tube containing lithium heparin anticoagulant, and plasma was separated by centrifugation for the clinical chemistry analysis at the pretrial medical examinations, pre-dose, 6 hours and 24 hours after dosing on each trial day. Concentrations of the uric acid were determined by standard analytical techniques.
The listed percentages represent mean blood level of uric acid at 24 hours after administration of the test substance (active compound or placebo) as a percentage of the baseline uric acid level measured prior to administration. […] In particular at a dose of 400 mg the mean uric acid blood level is reduced by 29%. Doses of 800 mg and 1600 mg likewise reduce blood levels of uric acid by 33% and 42% respectively.

With `CCCS(=O)(=O)NC(=O)c1ccc(N(CC)Cc2cc(Br)ccc2OCC2CC2)nn1` [N-propanesulfonyl-6-[N-(5-bromo-2-(cyclopropylmethoxy)benzyl)-N-ethylamino]pyridazine-3-carboxamide] the “mean uric acid blood level reduced by” value (dose of 400 mg) was 29%, the “mean uric acid blood level reduced by” value (dose of 800 mg) was 33% and the “mean uric acid blood level reduced by” value (dose of 1600 mg) was 42%. For the same molecule, the “% at 24 hrs. (mean blood level of uric acid at 24 hours after administration as a percentage of the baseline level)” value (dose 1 mg) was 98.8%, the “Mean uric acid 24 hr. after dose” value (dose 1 mg, n=4) was 280 and the “% at 24 hrs. (mean blood level of uric acid at 24 hours after administration as a percentage of the baseline level)” value (dose 5 mg) was 90.1%. The “Mean uric acid 24 hr. after dose” value (dose 5 mg, n=4) was 245, the “% at 24 hrs. (mean blood level of uric acid at 24 hours after administration as a percentage of the baseline level)” value (dose 25 mg) was 93.2% and the “Mean uric acid 24 hr. after dose” value (dose 25 mg, n=4) was 237. For the same molecule, the “% at 24 hrs. (mean blood level of uric acid at 24 hours after administration as a percentage of the baseline level)” value (dose 100 mg) was 90.0%, the “Mean uric acid 24 hr. after dose” value (dose 100 mg, n=4) was 286 and the “% at 24 hrs. (mean blood level of uric acid at 24 hours after administration as a percentage of the baseline level)” value (dose 200 mg) was 85.2%. For the same molecule, the “Mean uric acid 24 hr. after dose” value (dose 200 mg, n=4) was 268, the “% at 24 hrs. (mean blood level of uric acid at 24 hours after administration as a percentage of the baseline level)” value (dose 400 mg) was 70.6% and the “Mean uric acid 24 hr. after dose” value (dose 400 mg, n=4) was 242. For the same molecule, the “% at 24 hrs. (mean blood level of uric acid at 24 hours after administration as a percentage of the baseline level)” value (dose 800 mg) was 66.7%, the “Mean uric acid 24 hr. after dose” value (dose 800 mg, n=4) was 237 and the “% at 24 hrs. (mean blood level of uric acid at 24 hours after administration as a percentage of the baseline level)” value (dose 1600 mg) was 57.6%. For the same molecule, the “Mean uric acid 24 hr. after dose” value (dose 1600 mg, n=6) was 168.
